Source: patent US7780966B2, “Artificial invaplex” (The United States of America as represented by the …, priority 2007, dated 2010)

How the values were obtained:
IpaB = details: in vivo
IpaC = details: in vivo

ovalbumin
Anti-IpaB Serum IgG (geomean endpoint titer) (IpaB): 90 ± 0 | Anti-IpaC Serum IgG (geomean endpoint titer) (IpaC): 90 ± 0
